We go through 1 compound from article PMC7316895, “Identification of a Compound That Inhibits the Growth of Gram-Negative Bacteria by Blocking BamA–BamD Interaction” (Frontiers in Microbiology, 2020).

The target of this test is T1, BamA (Escherichia coli, UniProt P0A940).
T1 construct: biotinylated for BLI
Nature of the test: biolayer interferometry ([…] global fit); supported by GST pull-down showing dose-dependent loss of BamA–BamD interaction. Format: binding. A general note: In BLI a coated tip is dipped into the sample, and binding shifts an interference pattern.

`COC(=O)c1c(NC(=O)c2ccc([N+](=O)[O-])o2)sc2c1CCN(C(C)C)C2` [IMB-H4] registered a Kd of 3.90E^–6.
